In the case of `Cc1cc(S(=O)(=O)NC2CCOCC2)ccc1NC(=O)Cc1ccc(C)c(Oc2cc(Cl)cc(C#N)c2)c1` [Compound I-128, 2-[3-(3-Chloro-5-cyano-phenoxy)-4-methyl-phenyl]-N-[2-methyl-4-(tetrahydro-pyran-4-ylsulfamoyl)-phenyl]-acetamide], the melting point (in general, the temperature of the solid-liquid transition) fell in the range of 171.7 to 172.6 °C.

The molecule `Cc1cc(S(=O)(=O)NCCN2CCOCC2)ccc1NC(=O)Cc1ccc(C)c(Oc2cc(Cl)cc(C#N)c2)c1` [Compound I-118, 2-[3-(3-Chloro-5-cyano-phenoxy)-4-methyl-phenyl]-N-[2-methyl-4-(2-morpholin-4-yl-ethylsulfamoyl)-phenyl]-acetamide] returned a melting point of 177 to 181 °C.

Regarding `Cc1ccc(CC(=O)Nc2ccc(S(N)(=O)=O)cc2)cc1Oc1cc(Cl)ccc1Br` [Compound I-30, 2-[3-(2-Bromo-5-chloro-phenoxy)-4-methyl-phenyl]-N-(4-sulfamoyl-phenyl)-acetamide], the melting point is 236.9 to 239.3 °C.

For `Cc1ccc(CC(=O)Nc2ccccc2Cl)c(F)c1Oc1cc(C#N)cc(C(F)F)c1` [Compound I-86, N-(2-Chloro-phenyl)-2-[3-(3-cyano-5-difluoromethyl-phenoxy)-2-fluoro-4-methyl-phenyl]-acetamide], the melting point was 163.3 to 164.4 °C.

Regarding `Cc1cc(CC(=O)Nc2ccc(S(N)(=O)=O)cc2Cl)cc(Oc2cc(Cl)cc(C#N)c2)c1C` [Compound I-184, 2-[3-(3-Chloro-5-cyano-phenoxy)-4,5-dimethyl-phenyl]-N-(2-chloro-4-sulfamoyl-phenyl)-acetamide], the melting point was in the range of 224.3 to 225.7 °C.

With `CCc1ccc(CC(=O)Nc2ccccc2Cl)cc1Oc1cc(C#N)cc(C#N)c1Cl` [Compound I-60, 2-[3-(2-Chloro-3,5-dicyano-phenoxy)-4-ethyl-phenyl]-N-(2-chloro-phenyl)-acetamide], the melting point fell in the range of 110 to 111.5 °C.

`COCCC(=O)NS(=O)(=O)c1ccc(NC(=O)Cc2ccc(Cl)c(Oc3cc(Cl)cc(C#N)c3)c2F)c(Cl)c1.[Na]` showed a melting point of 133.1 to 140.7 °C.

For `CCc1ccc(CC(=O)Nc2ccc(S(N)(=O)=O)cc2C)cc1Oc1cc(Cl)cc(C#N)c1` [Compound I-46, 2-[3-(3-Chloro-5-cyano-phenoxy)-4-ethyl-phenyl]-N-(2-methyl-4-sulfamoyl-phenyl)-acetamide], the melting point is 189.1 to 189.4 °C.

For the molecule `CCc1ccc(CC(=O)Nc2ccc(S(N)(=O)=O)cc2)cc1Oc1cc(C#N)cc(C#N)c1Cl` [Compound I-52, 2-[3-(2-Chloro-3,5-dicyano-phenoxy)-4-ethyl-phenyl]-N-(4-sulfamoyl-phenyl)-acetamide], the melting point fell in the range of 119.7 to 123.3 °C.

`COc1cc(CC(=O)Nc2ccc(S(N)(=O)=O)cc2C)cc(Oc2cc(C#N)ccc2Cl)c1` [Compound I-103, 2-[3-(2-Chloro-5-cyano-phenoxy)-5-methoxy-phenyl]-N-(2-methyl-4-sulfamoyl-phenyl)-acetamide] showed a melting point of 179.8 to 184 °C.

The molecule `Cc1cc(CC(=O)Nc2ccc(S(N)(=O)=O)cc2Cl)cc(Oc2cc(Cl)cc(C#N)c2)c1` [Compound I-143, 2-[3-(3-Chloro-5-cyano-phenoxy)-5-methyl-phenyl]-N-(2-chloro-4-sulfamoyl-phenyl)-acetamide] yielded a melting point of 194.1 to 195.9 °C.

`CCc1ccc(CC(=O)Nc2ccccc2Cl)cc1Oc1cc(Cl)ccc1Br` [Compound I-16, 2-[3-(2-Bromo-5-chloro-phenoxy)-4-ethyl-phenyl]-N-(2-chloro-phenyl)-acetamide]: the melting point was in the range of 154 to 155.5 °C.

Molecule `CCc1ccc(CC(=O)Nc2ccc(S(=O)(=O)NC)cc2)cc1Oc1cc(Cl)cc(C#N)c1` [Compound I-48, 2-[3-(3-Chloro-5-cyano-phenoxy)-4-ethyl-phenyl]-N-(4-methylsulfamoyl-phenyl)-acetamide] came in with a melting point of 149.1 to 151.3 °C.

`CCN(CC)CC(=O)NS(=O)(=O)c1ccc(NC(=O)Cc2ccc(Cl)c(Oc3cc(Cl)cc(C#N)c3)c2F)c(Cl)c1.Cl` had a melting point of 195.3 to 197.2 °C.

Consider `N#Cc1cc(Cl)cc(Oc2c(Cl)ccc(CC(=O)Nc3ccc(S(=O)(=O)NC(=O)CO)cc3Cl)c2F)c1.[Na]`, for which the melting point lay in the range of 178 to 179.5 °C.

Turning to `COc1cc(CC(=O)Nc2ccc(S(N)(=O)=O)cc2C)cc(Oc2cc(Cl)cc(C#N)c2)c1` [Compound I-133, 2-[3-(3-Chloro-5-cyano-phenoxy)-5-methoxy-phenyl]-N-(2-methyl-4-sulfamoyl-phenyl)-acetamide], the melting point lay in the range of 169.9 to 171.1 °C.

With `Cc1cc(OCCCS(N)(=O)=O)ccc1NC(=O)Cc1ccc(Cl)c(Oc2cc(Cl)ccc2Br)c1` [Compound I-3, 2-[3-(2-Bromo-5-chloro-phenoxy)-4-chloro-phenyl]-N-[2-methyl-4-(3-sulfamoyl-propoxy)-phenyl]-acetamide], the melting point fell in the range of 190.1 to 192.2 °C.

In turn, `Cc1cc(CC(=O)Nc2ccc(S(N)(=O)=O)cc2C)cc(Oc2cc(Cl)cc(C#N)c2)c1` [Compound I-142, 2[3-(3-Chloro-5-cyano-phenoxy)-5-methyl-phenyl]-N-(2-methyl-4-sulfamoyl-phenyl)-acetamide] yielded a melting point of 184.8 to 186 °C.

Molecule `CC(C)c1ccc(CC(=O)Nc2ccccc2Cl)cc1Oc1cc(Cl)ccc1Br` [Compound I-27, 2-[3-(2-Bromo-5-chloro-phenoxy)-4-isopropyl-phenyl]-N-(2-chloro-phenyl)-acetamide] returned a melting point of 142.9 to 143.6 °C.

Turning to `Cc1cc(S(N)(=O)=O)ccc1NC(=O)Cc1ccc(Cl)c(Oc2c(C)cc(C#N)cc2C)c1` [Compound I-56, 2-[4-Chloro-3-(4-cyano-2,6-dimethyl-phenoxy)-phenyl]-N-(2-methyl-4-sulfamoyl-phenyl)-acetamide], the melting point was 232.1 to 234.6 °C.

Molecule `Cc1ccc(CC(=O)Nc2ccc(S(N)(=O)=O)cc2Cl)cc1Oc1cc(C#N)cc(C#N)c1` [Compound I-44, N-(2-Chloro-4-sulfamoyl-phenyl)-2-[3-(3,5-dicyano-phenoxy)-4-methyl-phenyl]-acetamide] showed a melting point of 209.9 to 211.5 °C.

`CCc1ccc(CC(=O)Nc2ccc(S(N)(=O)=O)cc2)cc1Oc1cc(C#N)cc(C(F)F)c1` [Compound I-91, 2-[3-(3-Cyano-5-difluoromethyl-phenoxy)-4-ethyl-phenyl]-N-(4-sulfamoyl-phenyl)-acetamide] had a melting point of 188 to 198 °C.

Regarding `Cc1cc(S(=O)(=O)N2CCSCC2)ccc1NC(=O)Cc1ccc(C)c(Oc2cc(Cl)cc(C#N)c2)c1` [Compound I-117, 2-[3-(3-Chloro-5-cyano-phenoxy)-4-methyl-phenyl]-N-[2-methyl-4-(thiomorpholine-4-sulfonyl)-phenyl]-acetamide], the melting point was in the range of 151.9 to 155.3 °C.

Take `Cc1cc(S(=O)(=O)NC(=O)[C@@H](N)C(C)C)ccc1NC(=O)Cc1ccc(Cl)c(Oc2cc(Cl)cc(C#N)c2)c1F.Cl`: the melting point lay in the range of 169 to 180.3 °C.

Molecule `Cc1ccc(CC(=O)Nc2ccccc2Cl)cc1Oc1cc(Cl)ccc1Br` [Compound I-33, 2-[3-(2-Bromo-5-chloro-phenoxy)-4-methyl-phenyl]-N-(2-chloro-phenyl)-acetamide] returned a melting point of 133.9 to 135.9 °C.

Values taken from patent US7166738B2, “Non-nucleoside reverse transcriptase inhibitors” (Roche Palo Alto LLC, priority 2004, dated 2007).
